What all share (assay type): cell-based, human
The subject of assay [1] is HeLa cells. Nature of the assay: YO-PRO assay of siRNA-treated cells. The following applies: BUBR1 siRNA pool, 48 hours treatment. The protocol:
For siRNA experiments to assess effects on BUBR1 expression levels by immunoblotting and effects on tumour cell proliferation and viability using the YO-PRO assay (FIGS. 7, 9,10 and 11), and Crystal Violet Assay (FIGS. 12 and 13), cells were seeded in 6 well plates at an appropriate density: HeLa (cervical cancer cells; ATCC reference CCL-2) 2.5E+04 (for YO-PRO) or 4.0E+04 (for Crystal Violet) cells per well, H460 (NSCLC cells; ATCC reference HTB-177) 5.0E+04 cells per well, MCF-7 (breast carcinoma cells; ATCC reference HTB-22) 2.4E+05 cells per well, Panc1 (pancreatic cancer cells, ATCC reference CRL-1469) and HCT116 (colon cancer cells, ATCC reference CCI-247) 8E+04 cells per well, and were cultured at 37° C. and 5% CO2 in RPMI-1640 or DMEM containing 10% FCS (complete medium). […]
12.5 μl YO-PRO®-1 iodide (491/509)(Invitrogen/Molecular Probes, # Y-3603; 1 mM in DMSO) were added to 1 ml 5-times concentrated YO-PRO buffer (100 mM Na-citrate, pH 4.0; 134 mM NaCl) to produce the YO-PRO Mix. […] The uptake of YO-PRO dye into cells was assessed by using a SpectraMax M2^e plate reader (Molecular Devices) using 485 nm excitation and 538 nm emission at a cutoff of 530 nm. […] Fluorescent read-out was performed in a SpectraMax M2^e plate reader (Molecular Devices) using 485 nm excitation and 538 nm emission at a cut off of 530 nm. […]

The subject of assay [2] is LXFA629. Nature of the assay: Colony outgrowth assay, patient-derived tumour xenograft cells. Also noted: key: S: BAL27862-sensitive tumour cells have IC70 values in the low nanomolar range; R: BAL27862-resistant tumour cells are defined by IC70 values >600 nanomolar. Conditions: Lung. The protocol:
(§1) Single cell suspensions of patient-derived tumour xenografts (maintained in nude mice) were prepared. For colony outgrowth assays, cells were plated in soft agar in 24-well plates according to the assay introduced by Hamburger & Salmon (Primary bioassay of human tumour stem cells, Science, 1977, 197:461-463). 2.0E+04-6.0E+04 cells in 0.2 mL medium containing 0.4% agar were plated out on a bottom layer of 0.75% agar. Test compounds were applied in 0.2 mL culture medium. Every 24-well plate contained untreated controls and samples in triplicates. Cultures were incubated at 37° C. and 7.5% CO2 for 5-28 days. 24 hours prior to analysis, vital colonies were stained with a solution of metabolizable tetrazolium salt (Alley M C et al, Life Sci. 1982, 31:3071-3078) and were counted with an automatic image analysis system (Omnicon 3600, Biosys GmbH).
(§2) Relative drug effects were expressed by the ratio of the mean number of colonies in the treated wells and the control wells. IC70-values were determined by plotting compound concentrations versus relative colony counts.

In assay [3] the test system is GXF97. The description is as above. Also noted: key: S: BAL27862-sensitive tumour cells have IC70 values in the low nanomolar range; R: BAL27862-resistant tumour cells are defined by IC70 values >600 nanomolar. Conditions: Gastric. Here is the method:
as §1, §2

Assay [4] relates to GXF251. The assay is described as above. Also noted: key: S: BAL27862-sensitive tumour cells have IC70 values in the low nanomolar range; R: BAL27862-resistant tumour cells are defined by IC70 values >600 nanomolar. Conditions: Gastric. The protocol:
as §1, §2

Assay [5] relates to LXFL529. The description is as above. Details: key: S: BAL27862-sensitive tumour cells have IC70 values in the low nanomolar range; R: BAL27862-resistant tumour cells are defined by IC70 values >600 nanomolar. The following applies: Lung. The protocol: as §1, §2
In assay [6] the test system is HeLa cervical cancer cells. The experiment in a line: Immunofluorescent staining of microtubules in cultured cells. The following applies: 24 hours, 50 nM. The protocol:
A549 human non-small cell lung cancer (NSCLC, ATCC reference number CCL-185) cells, HeLa cervical cancer cells (ATCC reference number CCL-2) and SKBR3 breast carcinoma cells (ATCC reference number HTB-30) were seeded at densities of 50% on round microscope coverslips and cultured for 24 hours in RPMI-1640 containing 10% FCS (also referred to as FBS) at 37° C., 5% CO2. Compounds to be tested were dissolved in DMSO. The cell culture medium was replaced with medium containing the diluted compound(s) (paclitaxel, vinblastine, colchicine and nocodazole were purchased from Sigma-Aldrich) or vehicle. After treatment, coverslips were washed and cells were fixed in methanol/acetone (1:1) for 5 minutes at room temperature and subsequently incubated in blocking buffer (0.5% BSA and 0.1% TX-100 in PBS) for 30 minutes at room temperature. Specimens were then incubated with anti-alpha-tubulin antibody (Sigma, 1:2000) for 1 hour at room temperature in blocking buffer. After several washing steps cells were incubated with AlexaFluor-488 goat-anti-mouse IgG (Molecular Probes, 1:3000) for 1 hour at room temperature followed by several washing steps with blocking buffer. Specimens were then mounted with ProLong Gold antifade (Molecular Probes), sealed with nail polish and examined with a Leica immunofluorescence microscope. Images were captured with a cooled CCD-camera and processed by ImageJ software.

We go through 1 molecule from patent US9970938B2, “Use of BUBR1 as a biomarker of drug response to furazanobenzimidazoles” (Basilea Pharmaceutica AG, priority 2011, dated 2018).

As for `N#CCCNc1nonc1-c1nc2ccccc2n1CC(=O)c1ccc(N)cc1` [BAL27862, 3-(4-{1-[2-(4-Amino-phenyl)-2-oxo-ethyl]-1H-benzoimidazol-2-yl}-furazan-3-ylamino)-propionitrile], in assay [1], the “antiproliferative effect with reduced BUBR1 expression” value is “dramatically reduced”. Moreover, the “tumour cell death with reduced BUBR1 expression” value in assay [1] is reported as “no increase in tumour cell death observed”. Further, the “Sensitive (S)/Resistant (R), by IC70 in colony outgrowth” value is “R (BAL27862-resistant tumour cells are defined by IC70 values >600 nanomolar)” in assay [2], “R (BAL27862-resistant tumour cells are defined by IC70 values >600 nanomolar)” in assay [3], “S” in assay [4] and “S” in assay [5]. In addition, the “microtubule phenotype of mitotic or G2/M arrested cells” value in assay [6] was “highly reproducible and distinct microtubule phenotype”.
